According to patent US20200361908A1, “CRYSTALS OF ANILINE PYRIMIDINE COMPOUND SERVING AS EGFR INHIBITOR” (CHIA TAI TIANQING PHARMACEUTICAL GROUP CO., LTD., priority 2016, published 2020):

Tests used:
[1] = Stability test of crystal B under high temperature, high humidity or illumination; assay type: physicochemical
Description: (§1) The stability of the crystal according to the present application may be detected by placing the crystal under a condition with a high temperature, a high humidity, or a lighting condition. The high temperature condition may be 40° C. to 60° C., the high humidity condition may be a relative humidity of 75% to 92.5% RH, and the lighting condition may be 5000 Lux. The crystal stability may be evaluated by investigating several parameters, such as the content of the crystal, the total content of impurities, or the water content, of a sample, and comprehensively evaluating these parameters according to the properties of the product.
The crystal B obtained by Method 5 of Example 4 was kept respectively in an environment at a high temperature of 60° C., a high humidity of 75% RH, a high humidity of 92.5% RH, or an illumination intensity of 5000 Lux, and sampled for detection on days 5, 10, and 30, respectively.

[2] = Stability test of crystal A at room temperature, kept away from light; assay type: physicochemical
Description: as §1
The crystal A obtained by Method 1 of Example 3 was kept away from light at room temperature, and sampled for detection in months 1.5, 2, 5, and 6, respectively.

**Q.** With C=CC(=O)Nc1cc(Nc2nccc(-n3c(=O)n(C)c4ccccc43)n2)c(OC)cc1N(C)CCN(C)C [crystal B] as the molecule, how does the Characters ([1]; Day 0) read?
**A.** white

**Q.** And the “Content (%)” value ([1]; Day 0)?
**A.** 99.3%

**Q.** And the “Total Impurity (%)” value ([1]; Day 0)?
**A.** 0.12%

**Q.** What about the Characters ([1]; High Humidity 75% RH, Day 5) of the same molecule?
**A.** white

**Q.** What about the “Content (%)” value ([1]; High Humidity 75% RH, Day 5) of the same molecule?
**A.** 99.3%

**Q.** What about the Characters ([1]; High Humidity 75% RH, Day 10) of the same molecule?
**A.** white

**Q.** What about the “Content (%)” value ([1]; High Humidity 75% RH, Day 10) of the same molecule?
**A.** 103.6%

**Q.** And the “Total Impurity (%)” value ([1]; High Humidity 75% RH, Day 10)?
**A.** 0.07%

**Q.** And the Characters ([1]; High Humidity 75% RH, Day 30)?
**A.** off-white

**Q.** What about the “Content (%)” value ([1]; High Humidity 75% RH, Day 30) of the same molecule?
**A.** 106.4%

**Q.** What about the “Total Impurity (%)” value ([1]; High Humidity 75% RH, Day 30) of the same molecule?
**A.** 0.06%

**Q.** And the Characters ([1]; High Humidity 92.5% RH, Day 5)?
**A.** white

**Q.** What about the “Content (%)” value ([1]; High Humidity 92.5% RH, Day 5) of the same molecule?
**A.** 98.4%

**Q.** What about the Characters ([1]; High Humidity 92.5% RH, Day 10) of the same molecule?
**A.** white

**Q.** What about the “Content (%)” value ([1]; High Humidity 92.5% RH, Day 10) of the same molecule?
**A.** 105.2%

**Q.** What about the “Total Impurity (%)” value ([1]; High Humidity 92.5% RH, Day 10) of the same molecule?
**A.** 0.06%

**Q.** And the Characters ([1]; High Humidity 92.5% RH, Day 30)?
**A.** off-white

**Q.** What about the “Content (%)” value ([1]; High Humidity 92.5% RH, Day 30) of the same molecule?
**A.** 103.9%

**Q.** What about the “Total Impurity (%)” value ([1]; High Humidity 92.5% RH, Day 30) of the same molecule?
**A.** 0.07%

**Q.** And the Characters ([1]; High Temp. 60° C., Day 5)?
**A.** white

**Q.** What about the “Content (%)” value ([1]; High Temp. 60° C., Day 5) of the same molecule?
**A.** 100.5%

**Q.** What about the Characters ([1]; High Temp. 60° C., Day 10) of the same molecule?
**A.** white

**Q.** And the “Content (%)” value ([1]; High Temp. 60° C., Day 10)?
**A.** 104.2%

**Q.** And the “Total Impurity (%)” value ([1]; High Temp. 60° C., Day 10)?
**A.** 0.09%

**Q.** And the Characters ([1]; High Temp. 60° C., Day 30)?
**A.** off-white

**Q.** And the “Content (%)” value ([1]; High Temp. 60° C., Day 30)?
**A.** 107.9%

**Q.** And the “Total Impurity (%)” value ([1]; High Temp. 60° C., Day 30)?
**A.** 0.19%

**Q.** And the Characters ([1]; Illumination 5000 Lux, Day 5)?
**A.** white

**Q.** What about the “Content (%)” value ([1]; Illumination 5000 Lux, Day 5) of the same molecule?
**A.** 99.4%

**Q.** What about the “Total Impurity (%)” value ([1]; Illumination 5000 Lux, Day 5) of the same molecule?
**A.** 0.06%

**Q.** And the Characters ([1]; Illumination 5000 Lux, Day 10)?
**A.** white

**Q.** What about the “Content (%)” value ([1]; Illumination 5000 Lux, Day 10) of the same molecule?
**A.** 106.9%

**Q.** And the “Total Impurity (%)” value ([1]; Illumination 5000 Lux, Day 10)?
**A.** 0.14%

**Q.** And the Characters ([1]; Illumination 5000 Lux, Day 30)?
**A.** off-white

**Q.** And the “Content (%)” value ([1]; Illumination 5000 Lux, Day 30)?
**A.** 107.9%

**Q.** And the “Total Impurity (%)” value ([1]; Illumination 5000 Lux, Day 30)?
**A.** 0.37%

**Q.** Which results are given for C=CC(=O)Nc1cc(Nc2nccc(-n3c(=O)n(C)c4ccccc43)n2)c(OC)cc1N(C)CCN(C)C [crystal A]?
**A.** Characters ([2]; Initial Result): off-white; Content (%) ([2]; Initial Result): 100.3%; Total Impurity (%) ([2]; Initial Result): 1.11%; Characters ([2]; Month 1.5): off-white; Content (%) ([2]; Month 1.5): 100.5%; Total Impurity (%) ([2]; Month 1.5): 1.52%; Characters ([2]; Month 2): off-white; Total Impurity (%) ([2]; Month 2): 1.23%; Characters ([2]; Month 5): off-white; Content (%) ([2]; Month 5): 100%; Total Impurity (%) ([2]; Month 5): 1.5%; Characters ([2]; Month 6): off-white; Content (%) ([2]; Month 6): 99.8%; Total Impurity (%) ([2]; Month 6): 1.37%
